One assay deals with T1, BRD4 (BDII_E352-M457) (Homo sapiens, UniProt O60885).
T1 construct: protocol; made in house
The assay is described as follows: TR-FRET bromodomain binding assay, second bromodomain of BRD4. As to conditions: TR-FRET assay protocol G (compound 0.92 μM-15 pM); 30 nM probe. The essentials:
(§1)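 Displacement of a fluorescent Alexa647 BET-inhibitor probe (100 nM with BDI, 30 nM with BDII) from His-tagged BRD4 bromodomains was monitored by europium TR-FRET after one hour at room temperature. Data were normalized to no-compound and 1 μM unlabelled probe controls, fitted with a four-parameter logistic, and IC50s converted to Ki.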
A general note: TR-FRET usually uses a lanthanide donor and a delayed reading to cut background.

The subject of assay [1] is breast cancer cell line MX-1. The assay can be described thus: MX-1 cell line proliferation assay. Format: cell-based. As to conditions: MX-1 cells, 3-day proliferation assay, Cell Titer Glo; read-out: Cellular proliferation: EC50. The gist of the method:
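EC50 comes from sigmoidal fits of Cell Titer Glo luminescence relative to DMSO controls, with assay MSR 2.1. Ten-point 3-fold dilutions (top 3 or 1 μM final) were added to MX-1 breast cancer cells after overnight adhesion. Cells were at 5000/well and proliferation ran 3 days.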

The target in a further assay is T2, BRD4 (BDI_K57-E168) (Homo sapiens, UniProt O60885).
T2 construct: BD1: amino acids K57-E168; made in house
The assay can be described thus: TR-FRET bromodomain binding assay, first bromodomain of BRD4. As to conditions: TR-FRET assay protocol G (compound 0.92 μM-15 pM); 100 nM probe. The essentials:
as §1

pEC50, pKi: −log10 of the molar value.

The term pKi denotes the negative decadic logarithm of the Ki, by convention in mol/L. Low values mean a high Ki, high ones a low Ki.

Consider `CCOCCCC1c2c[nH]c3c(=O)n(C)cc(c23)-c2cc(CS(C)(=O)=O)ccc2N1c1ccc(F)cc1F` (stereo not drawn) [Example 148, 4-(2,4-difluorophenyl)-3-(3-ethoxypropyl)-10-methyl-7-((methylsulfonyl)methyl)-3,4-dihydro-1H-1,4,10-triazadibenzo[cd,f]azulen-11(10H)-one], for which the negative-log Ki (pKi) is 9.27 at BRD4 (BDII_E352-M457) and 8.17 on BRD4 (BDI_K57-E168). Further, the pEC50 in assay [1] is 7.50.
On to `COC(=O)CNC(=O)C1c2c[nH]c3c(=O)n(C)cc(c23)-c2cc(CS(C)(=O)=O)ccc2N1c1ccc(F)cc1F` (stereo not drawn) [Example 155, methyl 2-(4-(2,4-difluorophenyl)-10-methyl-7-((methylsulfonyl)methyl)-11-oxo-3,4,10,11-tetrahydro-1H-1,4,10-triazadibenzo[cd,f]azulene-3-carboxamido)acetate], for which the values for the negative-log Ki (pKi) at BRD4 (BDII_E352-M457) and at BRD4 (BDI_K57-E168) were 7.32 and 7.37, respectively. Also, the pEC50 in assay [1] was 6.46.
On the same counts, the results for `Cn1cc2c3c(c[nH]c3c1=O)C(C(=O)NCCc1ccccc1)N(c1ccc(F)cc1F)c1ccc(CS(C)(=O)=O)cc1-2` (stereo not drawn) [Example 156, 4-(2,4-difluorophenyl)-10-methyl-7-((methylsulfonyl)methyl)-11-oxo-N-phenethyl-3,4,10,11-tetrahydro-1H-1,4,10-triazadibenzo[cd,f]azulene-3-carboxamide] are 7.38, 7.33 and 6.67.
For the compound `CCCCNC(=O)C1c2c[nH]c3c(=O)n(C)cc(c23)-c2cc(CS(C)(=O)=O)ccc2N1c1ccc(F)cc1F` (stereo not drawn) [Example 157, N-butyl-4-(2,4-difluorophenyl)-10-methyl-7-((methylsulfonyl)methyl)-11-oxo-3,4,10,11-tetrahydro-1H-1,4,10-triazadibenzo[cd,f]azulene-3-carboxamide], the negative logarithm of the Ki (pKi) was 7.62 at BRD4 (BDII_E352-M457) and 7.40 on BRD4 (BDI_K57-E168). The pEC50 in assay [1] was 7.11.
As to `CC(C)CNC(=O)C1c2c[nH]c3c(=O)n(C)cc(c23)-c2cc(CS(C)(=O)=O)ccc2N1c1ccc(F)cc1F` (stereo not drawn) [Example 161, 4-(2,4-difluorophenyl)-N-isobutyl-10-methyl-7-((methylsulfonyl)methyl)-11-oxo-3,4,10,11-tetrahydro-1H-1,4,10-triazadibenzo[cd,f]azulene-3-carboxamide], the negative-log Ki (pKi) on BRD4 (BDII_E352-M457) is 7.67; at BRD4 (BDI_K57-E168), 7.49. Besides, the pEC50 in assay [1] is 7.38.
For the compound `Cn1cc2c3c(c[nH]c3c1=O)C(C(=O)NCC1CC1)N(c1ccc(F)cc1F)c1ccc(CS(C)(=O)=O)cc1-2` (stereo not drawn) [Example 164, N-(cyclopropylmethyl)-4-(2,4-difluorophenyl)-10-methyl-7-((methylsulfonyl)methyl)-11-oxo-3,4,10,11-tetrahydro-1H-1,4,10-triazadibenzo[cd,f]azulene-3-carboxamide], the negative-log Ki (pKi) is 7.52 on BRD4 (BDII_E352-M457) and 7.38 at BRD4 (BDI_K57-E168). For the same compound, the pEC50 in assay [1] is 7.14.
Take `Cn1cc2c3c(c[nH]c3c1=O)CN(C(=O)CC(C)(C)C)c1c(F)cc(F)cc1-2` [Example 169, 4-(3,3-dimethylbutanoyl)-5,7-difluoro-10-methyl-3,4-dihydro-1H-1,4,10-triazadibenzo[cd,f]azulen-11(10H)-one]: the pKi at BRD4 (BDII_E352-M457) is 8.33; at BRD4 (BDI_K57-E168), 7.91. For the same compound, the pEC50 in assay [1] was 7.16.
The like results for `Cn1cc2c3c(c[nH]c3c1=O)CN(C1CCC(NC(=O)OC(C)(C)C)CC1)c1ccc(S(C)(=O)=O)cc1-2` (stereo not drawn) [Example 170, tert-butyl ((trans)-4-(10-methyl-7-(methylsulfonyl)-11-oxo-10,11-dihydro-1H-1,4,10-triazadibenzo[cd,f]azulen-4(3H)-yl)cyclohexyl)carbamate] were, in that order, 7.60, 8.15 and 7.24.
The like results for `Cn1cc2c3c(c[nH]c3c1=O)CN(S(=O)(=O)C1CC1)c1ccc(CS(C)(=O)=O)cc1-2` [Example 172, 4-(cyclopropylsulfonyl)-10-methyl-7-((methylsulfonyl)methyl)-3,4-dihydro-1H-1,4,10-triazadibenzo[cd,f]azulen-11(10H)-one] were, in that order, 7.89, 7.24 and 6.26.
The like results for `CNCCCC1c2c[nH]c3c(=O)n(C)cc(c23)-c2cc(CS(C)(=O)=O)ccc2N1c1ccc(F)cc1F` (stereo not drawn) [Example 174, 4-(2,4-difluorophenyl)-10-methyl-3-(3-(methylamino)propyl)-7-((methylsulfonyl)methyl)-3,4-dihydro-1H-1,4,10-triazadibenzo[cd,f]azulen-11(10H)-one] were, in that order, 8.82, 7.90 and 6.62.
Consider `CN1CCN(Cc2[nH]c3c(=O)n(C)cc4c3c2CN(c2ccc(Cl)cc2)c2ccc(CS(C)(=O)=O)cc2-4)CC1` [Example 176, 4-(4-chlorophenyl)-10-methyl-2-((4-methylpiperazin-1-yl)methyl)-7-((methylsulfonyl)methyl)-3,4-dihydro-1H-1,4,10-triazadibenzo[cd,f]azulen-11(10H)-one], for which the pKi was 8.45 on BRD4 (BDII_E352-M457) and 9.00 at BRD4 (BDI_K57-E168). Further, in assay [1], the pEC50 is 7.85.
Regarding `Cn1cc2c3c(c[nH]c3c1=O)CN(c1ccc(F)cc1)c1ccc(CC#N)cc1-2` [Example 177, 2-(4-(4-fluorophenyl)-10-methyl-11-oxo-3,4,10,11-tetrahydro-1H-1,4,10-triazadibenzo[cd,f]azulen-7-yl)acetonitrile], the pKi on BRD4 (BDII_E352-M457) is 8.90; at BRD4 (BDI_K57-E168), 8.69. For the same compound, in assay [1], the pEC50 is 8.43.
The like results for `Cn1cc2c3c(c[nH]c3c1=O)CN(CC(C)(C)CN1CCCC1)c1ccc(CS(C)(=O)=O)cc1-2` [Example 178] were, in that order, 8.36, 8.36 and 6.91.
Take `COCC(C)N1Cc2c[nH]c3c(=O)n(C)cc(c23)-c2cc(CS(C)(=O)=O)ccc21` (stereo not drawn) [Example 185, 4-(1-methoxypropan-2-yl)-10-methyl-7-((methylsulfonyl)methyl)-3,4-dihydro-1H-1,4,10-triazadibenzo[cd,f]azulen-11(10H)-one]: the pKi on BRD4 (BDII_E352-M457) was 7.99; on BRD4 (BDI_K57-E168), 8.38. Moreover, in assay [1], the pEC50 is 7.55.
In the case of `Cn1cc2c3c(c(CN4CCOCC4)[nH]c3c1=O)CN(c1ccc(Cl)cc1)c1ccc(CS(C)(=O)=O)cc1-2` [Example 193, 4-(4-chlorophenyl)-10-methyl-7-((methylsulfonyl)methyl)-2-(morpholinomethyl)-3,4-dihydro-1H-1,4,10-triazadibenzo[cd,f]azulen-11(10H)-one], the negative logarithm of the Ki (pKi) is 7.91 at BRD4 (BDII_E352-M457) and 8.73 on BRD4 (BDI_K57-E168). In assay [1], the pEC50 was 7.50.
With `Cn1cc2c3c(c[nH]c3c1=O)CN(C1CCC(NC(=O)OC(C)(C)C)CC1)c1ccc(CS(C)(=O)=O)cc1-2` (stereo not drawn) [Example 197, tert-butyl ((trans)-4-(10-methyl-7-((methylsulfonyl)methyl)-11-oxo-10,11-dihydro-1H-1,4,10-triazadibenzo[cd,f]azulen-4(3H)-yl)cyclohexyl)carbamate], the pKi on BRD4 (BDII_E352-M457) is 8.58; on BRD4 (BDI_K57-E168), 8.82. The pEC50 in assay [1] is 8.58.
Consider `Cn1cc2c3c(c[nH]c3c1=O)C(CO)N(c1ccc(F)cc1F)c1ccc(CS(C)(=O)=O)cc1-2` (stereo not drawn) [Example 200, 4-(2,4-difluorophenyl)-3-(hydroxymethyl)-10-methyl-7-((methylsulfonyl)methyl)-3,4-dihydro-1H-1,4,10-triazadibenzo[cd,f]azulen-11(10H)-one], for which the values for the pKi at BRD4 (BDII_E352-M457) and on BRD4 (BDI_K57-E168) were 8.69 and 8.09, respectively. Besides, the pEC50 in assay [1] is 7.47.

(Values after patent US10035800B2 (AbbVie Inc., priority 2013, dated 2018).)
